Laboratory results: US6713477B1, “Hydroxamic acid derivatives” (Sumitomo Pharmaceuticals Company, Limited, priority 2000, dated 2004)

Columns and labels:
[1] = biological target: T1, MMP-3 (Matrix Metalloproteinase-3, Stromelysin-1) (Homo sapiens, UniProt P08254); assay: Inhibition assay against MMP-3 (fluorescent MCA-labeled substrate); assay type: biochemical; conditions: Table 10; active MMP at 20 nM, 37° C., 1.5 hours; read-out: IC50 MMP3
T1 construct: C-terminal truncated form of human prostromelysin cDNA; made in house; host or cells: E. coli
T1 sequence (P08254 100-272 limits assumed): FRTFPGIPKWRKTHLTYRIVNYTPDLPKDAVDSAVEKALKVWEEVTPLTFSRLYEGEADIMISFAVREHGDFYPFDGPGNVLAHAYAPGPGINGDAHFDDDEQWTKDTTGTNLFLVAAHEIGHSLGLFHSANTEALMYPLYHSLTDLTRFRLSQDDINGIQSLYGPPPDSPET
Description: C-terminal truncated form of human prostromelysin cDNA (proMMP-3, cDNA sequence in Nature, 348, 699-704 (1990)) was subcloned, expressed in E.coli and purified as described previously (Biochemistry 30, 6476-6483 (1991)). Activation of proMMP-3 was achieved by treatment with 1 mM 4-aminophenylmercuric acetate at 37° C. for 60 min.
(§1) Enzymatic assays were performed in accordance with C. G. Knight's method (FEBS Lett., 296(3), 263-266 (1992)). The fluorescent MCA-labeled substrate, (7-methoxycumaline-4-yl)-Pro-Leu-Gly-Leu-L-[N-(2,4-dinitrophenyl)-L-2,3-diaminopropionyl]-Ala-Arg-NH2 (Peptide Institute. Inc.) was used for measuring the kinetics of inhibition for each tested compound.
(§2) The substrate was incubated at 37° C. for 1.5 hours (MMP-1; for 24 hours) with active MMP (at 20 nM, except MMP-13 at 5 nM) and a test compound in assay buffer containing 100 mM Tris-HCl (pH7.5), 10 mM CaCl2, 100 MM NaCl and 0.05% Brij-35.

[2] = biological target: T2, MMP-13 (Matrix Metalloproteinase-13, Collagenase-3) (Homo sapiens, UniProt P45452); assay: Inhibition assay against MMP-13 (fluorescent MCA-labeled substrate); assay type: biochemical; conditions: Table 10; active MMP-13 at 5 nM, 37° C., 1.5 hours; read-out: IC50 MMP13
T2 construct: made in house; host or cells: E. coli BL21 (DE3), pET11a
Excerpt: To subclone C-terminal truncated form of procollagenase-3 (proMMP-13) cDNA (J.Biol.Chem., 269(24), 16766-16773 (1994)), two synthetic oligonucleotide primer (5′-[…]-3′ and 5′-[…]-3′: the former incorporates sequences for a unique NdeI site (underlined) including initial methionine, and the latter has sequences for a stop codon and BamHI site (underlined)) were used with human chondrocyte cDNA library (CLONTECH) in PCR. With these primers and Pfu DNA polymerase (STRATAGENE) in PCR, 767 bp fragment was generated, which encodes 84 amino acid prosequence and 164 amino acids of mature MMP-13. The fragment was digested with NdaI and BamHI, ligated into the NdeI and BamHI sites of pET11a (STRATAGENE), transformed in E.coli BL21 (DE3) and cultured. The crude cell extract was prepared as described in Biochemistry. The extract was dialyzed against 20 mM Tris-HCl(pH7.2)/5 mM CaCl2/0.02% NaN3 and applied to a SP-Sepharose HP column (1.6×10 cm, Amersham-Pharmacia Biotech), and elution was performed with 50 mL linear gradient of 0 to 0.3 M NaCl (partially purified proMMP-13 was eluted at 0.2 M approximately). The fraction was dialyzed against 20 mM Tris-HCl(pH7.9)/5 mM CaCl2,/200 mM (NH4)2SO4/0.02% NaN3 and applied to a Phenyl Sepharose HP column (1.6×5 cm, Amersham-Pharmacia Biotech), and elution was performed with 20 mL linear gradient of 0.2 to 0 M (NH4)2SO4 (pure proHMP-13 was eluted at 50 mM approximately). The fraction was concentrated by YM-5 ultrafiltration membrane and activated with 4-aminophenylmercuric acetate and active MMP-13 was separated from propeptide fragments by gel filtration chromatography as described in Biochemistry.
as §1, §2

Structure (SMILES) | IC50 [1] | IC50 [2]
COc1cccc(C2SC(CC(=O)NO)C(=O)N2CC(Cl)CCCCl)c1[N+](=O)[O-] (stereo not shown) [Example 10] | 31600 nM | 5300 nM
COc1ccc(C2SC(CC(=O)NO)C(=O)N2CCCc2ccccc2)cc1 (stereo not shown) [Example 13] | > 50000 nM | 13200 nM
COc1cccc(C2SC(CC(=O)NO)C(=O)N2CCc2ccc(O)cc2)c1OC (stereo not shown) [Example 19] | 1000 nM | > 50000 nM
CCCCC#Cc1ccc(C2SCC(=O)N2C(CC(C)C)C(=O)NO)cc1 (stereo not shown) [Example 42] | > 10000 nM | 759 nM
CC(C)CC(C(=O)NO)N1C(=O)CSC1c1ccc(-c2ccc(Cl)cc2)o1 (stereo not shown) [Example 46] | 894 nM | 134 nM
COc1ccc(C2SCC(=O)N2C(CCSC)C(=O)NO)cc1F (stereo not shown) [Example 71] | 9070 nM | 249 nM
CC(C)CC(C(=O)NO)N1C(=O)CSC1c1ccc(-c2cc(C(F)(F)F)nn2C)s1 (stereo not shown) [Example 88] | 3800 nM | 62 nM
COc1ccc(C2SCC(=O)N2C(COC(C)(C)C)C(=O)NO)cc1 (stereo not shown) [Example 105] | 6720 nM | 231 nM
O=C(NO)C(Cc1c[nH]c2ccccc12)N1C(=O)CSC1c1ccc(Cl)cc1 (stereo not shown) [Example 121] | 2550 nM | 128 nM
CC(C)CC(C(=O)NO)N1C(=O)CSC1c1ccc(Cl)cc1 (stereo not shown) [Example 130] | 1140 nM | 56 nM
CCCC(C(=O)NO)N1C(=O)CSC1c1ccc(Oc2ccccc2)cc1 (stereo not shown) [Example 143] | 1270 nM | 64 nM
CCC(C)C(C(=O)NO)N1C(=O)CSC1c1ccc(OC)c(F)c1 (stereo not shown) [Example 175] | 1140 nM | 112 nM
CCC(C)C(C(=O)NO)N1C(=O)CSC1c1ccc(SC)cc1 (stereo not shown) [Example 176] | 1060 nM | 100 nM
CCCCC(C(=O)NO)N1C(=O)CSC1c1cc2ccccc2o1 (stereo not shown) [Example 195] | 1890 nM | 119 nM
COc1ccc(C2SC(CC(=O)NCc3cccnc3)C(=O)N2C(Cc2ccccc2)C(=O)NO)cc1 (stereo not shown) [Example 211] | 895 nM | 108 nM
Cc1cc(NC(=O)CC2SC(c3ccc(Cl)cc3)N(C(Cc3ccc(OC(C)(C)C)cc3)C(=O)NO)C2=O)no1 (stereo not shown) [Example 255] | 1200 nM | 106 nM

Structure (SMILES) | IC50 [1] | IC50 [2]
C=CCNC(=O)CC1SC(c2ccc(Cl)cc2)N(C(CC(C)C)C(=O)NO)C1=O (stereo not shown) [Example 262] | 850 nM | 66 nM
CCCN(CCC)C(=O)CC1SC(c2ccc(Cl)cc2)N(C(CC(C)C)C(=O)NO)C1=O (stereo not shown) [Example 306] | 987 nM | 122 nM
COc1ccc(C2SC(CC(=O)NCCCN3CCCCC3C)C(=O)N2C(Cc2ccc(OC(C)(C)C)cc2)C(=O)NO)cc1 (stereo not shown) [Example 330] | 745 nM | 66 nM
COc1ccc(C2SC(CC(=O)NCc3ccco3)C(=O)N2C(Cc2ccc(OC(C)(C)C)cc2)C(=O)NO)cc1 (stereo not shown) [Example 333] | 794 nM | 70 nM
COc1ccc(/C=C2\Sc3cc(Cl)ccc3N(CC(=O)NO)C2=O)cc1 [Example 370] | 1200 nM | 35 nM
COc1ccc(/C=C2\Sc3ccc(C(F)(F)F)cc3N(CC(=O)NO)C2=O)cc1 [Example 371] | 880 nM | 36 nM
O=C(CN1C(=O)C(=Cc2ccccn2)Sc2ccccc21)NO [Example 378] | > 50000 nM | 16000 nM
O=C(CN1C(=O)/C(=C/c2ccccc2)Sc2ccccc21)NO [Example 388] | 23000 nM | 1600 nM
O=C(CN1C(=O)/C(=C/c2ccc(-c3ccc(Br)cc3)o2)Sc2ccccc21)NO [Example 389] | > 50000 nM | 29000 nM
O=C(CN1C(=O)C(Cc2ccc(O)cc2)Sc2ccccc21)NO (stereo not shown) [Example 406, 2H-2-(4-Hydroxybenzyl)-1,4-benzothiazin-3(4H)-one-4-yl-acetic Acid N-Hydroxyamide] | 3230 nM | 257 nM
CCN(CC)c1ccc(CC2Sc3ccccc3N(CC(=O)NO)C2=O)cc1 (stereo not shown) [Example 422] | > 10000 nM | 4810 nM
O=C(CN1C(=O)C(Cc2cccnc2)Sc2ccccc21)NO (stereo not shown) [Example 423] | 5130 nM | 1220 nM
COc1ccc(CC2Sc3cccc(Cl)c3N(CC(=O)NO)C2=O)cc1 (stereo not shown) [Example 429] | 5620 nM | 3600 nM
COc1ccc(CC2Sc3ccccc3N([C@H](C(=O)NO)C(C)C)C2=O)cc1 (stereo partly shown) [Example 436] | 938 nM | 671 nM
COc1ccc(CC2Sc3ccccc3N([C@H](C)C(=O)NO)C2=O)cc1 (stereo partly shown) [Example 438] | 1660 nM | 375 nM
COc1ccc(NC(=O)CC2Sc3ccccc3N(CC(=O)NO)C2=O)cc1 (stereo not shown) [Example 441, 2H-2-[N′-(4-Methoxyphenyl)-carbamoylmethyl]-1,4-benzothiazin-3(4H)-one-4-yl-acetic Acid N-Hydroxylamide] | 2960 nM | 118 nM

Now from value to compound:

IC50 [1] | IC50 [2] | Structure (SMILES)
599 nM | 43 nM | COc1ccc(C2SCC(=O)N2C(Cc2ccc(OC(C)(C)C)cc2)C(=O)NO)cc1 (stereo not shown) [Example 109]
422 nM | 56 nM | CC(C)CC(C(=O)NO)N1C(=O)C(CC(=O)NCc2ccco2)SC1c1ccc(Cl)cc1 (stereo not shown) [Example 218]
274 nM | 35 nM | COc1ccc(C2SC(CC(=O)NC3CCCCC3)C(=O)N2C(CC(C)C)C(=O)NO)cc1 (stereo not shown) [Example 239]
267 nM | 23 nM | COC(C)(C)NC(=O)CC1SC(c2ccc(Cl)cc2)N(C(Cc2ccc(OC(C)(C)C)cc2)C(=O)NO)C1=O (stereo not shown) [Example 257]
614 nM | 37 nM | CCCNC(=O)CC1SC(c2ccc(Cl)cc2)N(C(Cc2ccc(OC(C)(C)C)cc2)C(=O)NO)C1=O (stereo not shown) [Example 283]
442 nM | 26 nM | COCCNC(=O)CC1SC(c2ccc(Cl)cc2)N(C(Cc2ccc(OC(C)(C)C)cc2)C(=O)NO)C1=O (stereo not shown) [Example 316]
733 nM | 63 nM | CNC(=O)CC1SC(c2ccc(OC)cc2)N(C(Cc2ccc(OC(C)(C)C)cc2)C(=O)NO)C1=O (stereo not shown) [Example 324]
155 nM | 11 nM | COCCCNC(=O)CC1SC(c2ccc(OC)cc2)N(C(Cc2ccc(OC(C)(C)C)cc2)C(=O)NO)C1=O (stereo not shown) [Example 329]
446 nM | 53 nM | COc1ccc(C2SC(CC(=O)Nc3ccccn3)C(=O)N2C(Cc2ccc(OC(C)(C)C)cc2)C(=O)NO)cc1 (stereo not shown) [Example 361]
433 nM | 24 nM | Cc1ccc(CC2Sc3ccccc3N(CC(=O)NO)C2=O)cc1 (stereo not shown) [Example 407, 2H-2-(4-Methylbenzyl)-1,4-benzothiazin-3(4H)-one-4-yl-acetic acid N-hydroxyamide]
279 nM | 12 nM | O=C(CN1C(=O)C(Cc2ccc(Oc3ccccc3)cc2)Sc2ccccc21)NO (stereo not shown) [Example 409]
514 nM | 63 nM | O=C(CN1C(=O)C(Cc2ccc(-c3ccccc3)cc2)Sc2ccccc21)NO (stereo not shown) [Example 419]
375 nM | 38 nM | O=C(CN1C(=O)C(Cc2ccc(Br)cc2)Sc2ccccc21)NO (stereo not shown) [Example 426]
238 nM | 13 nM | COc1ccc(CC2Sc3cc(C)c(C)cc3N(CC(=O)NO)C2=O)cc1 (stereo not shown) [Example 431]
270 nM | 19 nM | COc1ccc(C2SC(CC(=O)NC(C)C)C(=O)N2C(Cc2ccccc2)C(=O)NO)cc1 (stereo not shown) [Example 479]
301 nM | 17 nM | CC(C)CC(C(=O)NO)N1C(=O)C(CC(=O)NCc2ccco2)[S+]([O-])C1c1ccc(Oc2ccc(Cl)cc2)cc1 (stereo not shown) [Example 739]
459 nM | 12 nM | COCCNC(=O)CC1C(=O)N(C(CC(C)C)C(=O)NO)C(c2ccc(Oc3ccc(Cl)cc3)cc2)[S+]1[O-] (stereo not shown) [Example 740]
53 nM | 4.9 nM | COc1ccc(CC2Sc3cc(C(=O)N[C@H](CO)CC(C)C)ccc3N(CC(=O)NO)C2=O)cc1 (stereo partly shown) [Example 865]
